Source: patent US20090111778A1, “2-Keto-Oxazoles as Modulators of Fatty Acid Amide Hydrolase” (priority 2005, published 2009)
Counter-ions that a name gives are not always drawn.

Tests used:
human FAAH = target: T1, human FAAH (Homo sapiens, UniProt O00519); assay: Assay Method 1: FAAH assay, hydrolysis of 3H-anandamide by homogenate of SK-N-MC cells transfected with human FAAH; format: biochemical; details: human FAAH; T84 or transfected SK-N-MC cell homogenate; 3H-AEA tracer 80 nM; rt 1 h; pH 9; read-out: Assay 1 IC50
T1 construct: expressed in transfected cells
T1 sequence (O00519 1-579): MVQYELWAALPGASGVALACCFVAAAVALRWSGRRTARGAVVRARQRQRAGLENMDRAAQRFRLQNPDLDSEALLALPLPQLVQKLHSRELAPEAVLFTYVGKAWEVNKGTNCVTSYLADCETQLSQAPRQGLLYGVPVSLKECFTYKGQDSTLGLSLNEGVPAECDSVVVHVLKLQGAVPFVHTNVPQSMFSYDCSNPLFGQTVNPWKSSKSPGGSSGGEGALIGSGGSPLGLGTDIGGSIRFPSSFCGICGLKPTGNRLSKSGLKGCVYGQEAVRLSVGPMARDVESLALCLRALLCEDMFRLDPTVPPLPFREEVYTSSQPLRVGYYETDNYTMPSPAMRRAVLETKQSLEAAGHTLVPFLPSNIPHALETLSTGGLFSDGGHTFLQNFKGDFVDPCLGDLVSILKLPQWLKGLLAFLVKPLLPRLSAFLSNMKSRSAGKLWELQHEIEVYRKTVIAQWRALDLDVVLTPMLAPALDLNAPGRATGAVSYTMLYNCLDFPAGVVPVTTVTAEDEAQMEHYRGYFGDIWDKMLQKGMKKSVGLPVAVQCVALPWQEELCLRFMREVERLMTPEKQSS
Procedure: A. Transfection of Cells with Human FAAH
(§1) A 10-cm tissue culture dish with a confluent monolayer of SK-N-MC cells was split 2 days (d) prior to transfection. Using sterile technique, the media was removed and the cells were detached from the dish by the addition of trypsin. One fifth of the cells were then placed onto a new 10-cm dish. Cells were grown in a 37° C. incubator with 5% CO2 in Minimal Essential Media Eagle with 10% Fetal Bovine Serum. After 2 d, cells were approximately 80% confluent. These cells were removed from the dish with trypsin and pelleted in a clinical centrifuge. The pellet was re-suspended in 400 μL complete media and transferred to an electroporation cuvette with a 0.4 cm gap between the electrodes. Supercoiled human FAAH cDNA (1 μg) was added to the cells and mixed. The voltage for the electroporation was set at 0.25 kV, and the capacitance was set at 960 μF. After electroporation, the cells were diluted into complete media (10 mL) and plated onto four 10-cm dishes. Because of the variability in the efficiency of electroporation, four different concentrations of cells were plated. The ratios used were 1:20, 1:10, and 1:5, with the remainder of the cells being added to the fourth dish. The cells were allowed to recover for 24 h before adding the selection media (complete media with 600 μg/mL G418). After 10 d, dishes were analyzed for surviving colonies of cells. Dishes with well-isolated colonies were used. Cells from individual colonies were isolated and tested.
The assay mixture consisted of […] of the cell homogenate, 10 μL of the test compound, and 40 μL of anandamide [1-^3H-ethanolamine] (3H-AEA, Perkin-Elmer, 10.3 Ci/mmol), which was added last, for a final tracer concentration of 80 nM. The reaction mixture was incubated at rt for 1 h. During the incubation, 96-well Multiscreen filter plates (catalog number MAFCNOB50; Millipore, Bedford, Mass., USA) were loaded with 25 μL of activated charcoal (Multiscreen column loader, catalog number MACL09625, Millipore) and washed once with 100 μL of MeOH. Also during the incubation, 96-well DYNEX MicroLite plates (catalog number NL510410) were loaded with 100 μL of MicroScint40 (catalog number 6013641, Packard Bioscience, Meriden, Conn., USA). After the 1 h incubation, 60 μL of the reaction mixture were transferred to the charcoal plates, which were then assembled on top of the DYNEX plates using Centrifuge Alignment Frames (catalog number MACF09604, Millipore). The unbound labeled ethanolamine was centrifuged through to the bottom plate (5 min at 2000 rpm), which was preloaded with the scintillant, as described above. The plates were sealed and left at rt for 1 h before counting on a Hewlett Packard TopCount.

rat FAAH = target: T2, rat FAAH (Rattus norvegicus, UniProt P97612); assay: Assay Method 2: FAAH assay, hydrolysis of 3H-anandamide by homogenate of SK-N-MC cells transfected with rat FAAH; format: biochemical; details: T84 or transfected SK-N-MC cell homogenate, 3H-AEA tracer 80 nM, rt 1 h, pH 9
T2 construct: expressed in transfected cells
T2 sequence (P97612 1-579): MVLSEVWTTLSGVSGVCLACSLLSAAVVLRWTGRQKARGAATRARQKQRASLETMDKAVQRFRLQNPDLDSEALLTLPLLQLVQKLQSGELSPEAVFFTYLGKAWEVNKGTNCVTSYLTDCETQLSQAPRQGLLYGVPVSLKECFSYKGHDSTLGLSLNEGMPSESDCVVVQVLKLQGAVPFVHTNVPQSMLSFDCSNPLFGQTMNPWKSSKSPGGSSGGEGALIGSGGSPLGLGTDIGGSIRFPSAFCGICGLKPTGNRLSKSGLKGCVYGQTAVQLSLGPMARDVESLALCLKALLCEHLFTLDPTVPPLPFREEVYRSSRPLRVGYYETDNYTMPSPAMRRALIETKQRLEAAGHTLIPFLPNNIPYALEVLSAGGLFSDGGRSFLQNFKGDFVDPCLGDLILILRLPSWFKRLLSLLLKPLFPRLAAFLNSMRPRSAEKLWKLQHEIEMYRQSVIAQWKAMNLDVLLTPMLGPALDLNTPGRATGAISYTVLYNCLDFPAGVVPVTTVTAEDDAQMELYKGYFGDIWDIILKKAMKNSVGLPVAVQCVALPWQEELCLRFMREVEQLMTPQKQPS
Procedure: as §1, with “A. Transfection of Cells with Rat FAAH A 10-cm” for “A 10-cm”, “electrodes. Supercoiled rat FAAH cDNA” for “electrodes. Supercoiled human FAAH cDNA”, “and tested. […] B. FAAH Assay […] The reaction mixture was incubated at rt for 1 h. During the incubation, 96-well Multiscreen filter plates (catalog number MAFCNOB50; Millipore, Bedford, Mass., USA) were loaded with 25 μL of activated charcoal (Multiscreen column loader, catalog number MACL09625, Millipore) and washed once with 100 μL of MeOH. Also during the incubation, 96-well DYNEX MicroLite plates (catalog number NL510410) were loaded with 100 μL of MicroScint40 (catalog number 6013641, Packard Bioscience, Meriden, Conn., USA). After the 1 h incubation, 60 μL of the reaction mixture were transferred to the charcoal plates, which were then assembled on top of the DYNEX plates using Centrifuge Alignment Frames (catalog number MACF09604, Millipore). The unbound labeled ethanolamine was centrifuged through to the bottom plate (5 min at 2000 rpm), which was preloaded with the scintillant, as described above. The plates were sealed and left at rt for 1 h before counting on a Hewlett Packard TopCount.” for “and tested.”

Work on `O=C(CCCC1CCN(Cc2ccc(N3CCOCC3)nc2)CC1)c1ncco1` [Example 107, 4-[1-(6-Morpholin-4-yl-pyridin-3-ylmethyl)-piperidin-4-yl]-1-oxazol-2-yl-butan-1-one] yielded an IC50 (human FAAH) of 180 nM and an IC50 (rat FAAH) of 2000 nM.

Molecule `O=C(O)c1cccc(-c2cnc(C(=O)CCCC3CCN(Cc4cccc(OC5CCCCC5)c4)CC3)o2)n1` [Example 150, 6-(2-{4-[1-(3-Cyclohexyloxy-benzyl)-piperidin-4-yl]-butyryl}-oxazol-5-yl)-pyridine-2-carboxylic acid trifluoroacetic acid salt] has an IC50 (human FAAH) of 16 nM and an IC50 (rat FAAH) of 7 nM.

`Cc1ccc(Oc2ccc(CN3CCC(CCCC(=O)c4ncco4)CC3)cn2)cc1` [Example 96, 1-Oxazol-2-yl-4-[1-(6-p-tolyloxy-pyridin-3-ylmethyl)-piperidin-4-yl]-butan-1-one] showed an IC50 (human FAAH) of 125 nM and an IC50 (rat FAAH) of 132 nM.

Work on `O=C(CCCC1CCN(Cc2ccccc2Br)CC1)c1ncco1` [Example 85, 4-[1-(2-Bromo-benzyl)-piperidin-4-yl]-1-oxazol-2-yl-butan-1-one] yielded an IC50 (human FAAH) of 315 nM and an IC50 (rat FAAH) of 240 nM.

In the case of `Cc1cccc(CN2CCC(CCCC(=O)c3ncco3)CC2)c1` [Example 19, 4-[1-(3-Methyl-benzyl)-piperidin-4-yl]-1-oxazol-2-yl-butan-1-one], the IC50 (human FAAH) is reported as 90 nM and the IC50 (rat FAAH) is reported as 305 nM.

`CCCS(=O)(=O)N1CCC(CCCC(=O)c2ncco2)CC1` [Example 57, 1-Oxazol-2-yl-4-[1-(propane-1-sulfonyl)-piperidin-4-yl]-butan-1-one] gave an IC50 (human FAAH) of 120 nM and an IC50 (rat FAAH) of 1600 nM.

Molecule `O=C(CCCC1CCN(Cc2cccc(Cl)c2)CC1)c1ncco1` [Example 10, 4-[1-(3-Chloro-benzyl)-piperidin-4-yl]-1-oxazol-2-yl-butan-1-one] has an IC50 (human FAAH) of 60 nM and an IC50 (rat FAAH) of 80 nM.

`CC(C)c1ccc(CN2CCC(CCCC(=O)c3ncc(-c4cccc(C(=O)O)n4)o3)CC2)cc1` [Example 148, 6-(2-{4-[1-(4-isopropyl-benzyl)-piperidin-4-yl]-butyryl}-oxazol-5-yl)-pyridine-2-carboxylic acid trifluoroacetic acid salt] gave an IC50 (human FAAH) of 60 nM and an IC50 (rat FAAH) of 56 nM.

Molecule `COc1ccc(S(=O)(=O)N2CCC(CCCC(=O)c3ncco3)CC2)cc1` [Example 61, 4-[1-(4-Methoxy-benzenesulfonyl)-piperidin-4-yl]-1-oxazol-2-yl-butan-1-one] has an IC50 (human FAAH) of 2 nM and an IC50 (rat FAAH) of 37 nM.

`O=C(CCCC1CCN(Cc2cccc(-c3ccccc3)c2)CC1)c1ncco1` [Example 72, 4-(1-Biphenyl-3-ylmethyl-piperidin-4-yl)-1-oxazol-2-yl-butan-1-one] showed an IC50 (human FAAH) of 0.9 nM and an IC50 (rat FAAH) of 2 nM.

For `CC(C)(C)c1ccc(CN2CCC(CCCC(=O)c3ncco3)CC2)cc1` [Example 83, 4-[1-(4-tert-Butyl-benzyl)-piperidin-4-yl]-1-oxazol-2-yl-butan-1-one], the IC50 (human FAAH) was 7 nM and the IC50 (rat FAAH) was 84 nM.

`O=C(CCCC1CCN(Cc2ccc(N3CCCCC3)cc2)CC1)c1ncco1` [Example 103, 1-Oxazol-2-yl-4-[1-(4-piperidin-1-yl-benzyl)-piperidin-4-yl]-butan-1-one] showed an IC50 (human FAAH) of 108 nM and an IC50 (rat FAAH) of 250 nM.

In the case of `O=C(CCCC1CCN(Cc2cccc(F)c2F)CC1)c1ncco1` [Example 81, 4-[1-(2,3-Difluoro-benzyl)-piperidin-4-yl]-1-oxazol-2-yl-butan-1-one], the IC50 (human FAAH) is reported as 200 nM and the IC50 (rat FAAH) is reported as 1000 nM.

With `O=C(CCCC1CCN(Cc2ccc(Cl)c(Cl)c2)CC1)c1ncco1` [Example 12, 4-[1-(3,4-Dichloro-benzyl)-piperidin-4-yl]-1-oxazol-2-yl-butan-1-one] the IC50 (human FAAH) was 50 nM and the IC50 (rat FAAH) was 70 nM.

`Cc1cc(CC(=O)N2CCC(CCCC(=O)c3ncco3)CC2)on1` [Example 43, 4-{1-[2-(3-Methyl-isoxazol-5-yl)-acetyl]-piperidin-4-yl}-1-oxazol-2-yl-butan-1-one] was tested, and the IC50 (human FAAH) was 4000 nM.

Work on `O=C(CCCC1CCN(Cc2ccc(N3CCOCC3)cc2)CC1)c1ncco1` [Example 106, 4-[1-(4-Morpholin-4-yl-benzyl)-piperidin-4-yl]-1-oxazol-2-yl-butan-1-one] yielded an IC50 (human FAAH) of 2000 nM.

Work on `COc1ccccc1CN1CCC(CCCC(=O)c2ncco2)CC1` [Example 87, 4-[1-(2-Methoxy-benzyl)-piperidin-4-yl]-1-oxazol-2-yl-butan-1-one] yielded an IC50 (human FAAH) of 4000 nM.

`O=C(CCCC1CCN(CCc2ccccc2)CC1)c1ncco1` [Example 95, 1-Oxazol-2-yl-4-(1-phenethyl-piperidin-4-yl)-butan-1-one] was tested, and the IC50 (rat FAAH) was 1200 nM.

With `O=C(CCCC1CCN(CC2CCCCC2)CC1)c1ncco1` [Example 86, 4-(1-Cyclohexylmethyl-piperidin-4-yl)-1-oxazol-2-yl-butan-1-one] the IC50 (human FAAH) was 9500 nM.

`O=C(CCCC1CCN(Cc2ccccn2)CC1)c1ncco1` [Example 4, 1-Oxazol-2-yl-4-(1-pyridin-2-ylmethyl-piperidin-4-yl)-butan-1-one] was tested, and the IC50 (human FAAH) was 3000 nM.
